ChEMBL document CHEMBL5465560, “Selectivity Literature for EUbOPEN Chemogenomic Library” (2024)

How the values were obtained:
[1] = biological target: Calcium/calmodulin-dependent protein kinase type 1D (Homo sapiens) (UniProt Q8IU85); test: Selectivity interaction (KinomeScan (DiscoverX)) EUB0001049a CAMK1D; settings: at 1 µM
[2] = biological target: T1, Ephrin type-B receptor 1 (Homo sapiens) (UniProt P54762); test: Selectivity interaction (ActivX KiNativ screen (kinase selectivity in THP-1 cell lysates)) EUB0000639a EPHB1; assay type: subcellular; settings: lysate
T1 sequence (whole entry): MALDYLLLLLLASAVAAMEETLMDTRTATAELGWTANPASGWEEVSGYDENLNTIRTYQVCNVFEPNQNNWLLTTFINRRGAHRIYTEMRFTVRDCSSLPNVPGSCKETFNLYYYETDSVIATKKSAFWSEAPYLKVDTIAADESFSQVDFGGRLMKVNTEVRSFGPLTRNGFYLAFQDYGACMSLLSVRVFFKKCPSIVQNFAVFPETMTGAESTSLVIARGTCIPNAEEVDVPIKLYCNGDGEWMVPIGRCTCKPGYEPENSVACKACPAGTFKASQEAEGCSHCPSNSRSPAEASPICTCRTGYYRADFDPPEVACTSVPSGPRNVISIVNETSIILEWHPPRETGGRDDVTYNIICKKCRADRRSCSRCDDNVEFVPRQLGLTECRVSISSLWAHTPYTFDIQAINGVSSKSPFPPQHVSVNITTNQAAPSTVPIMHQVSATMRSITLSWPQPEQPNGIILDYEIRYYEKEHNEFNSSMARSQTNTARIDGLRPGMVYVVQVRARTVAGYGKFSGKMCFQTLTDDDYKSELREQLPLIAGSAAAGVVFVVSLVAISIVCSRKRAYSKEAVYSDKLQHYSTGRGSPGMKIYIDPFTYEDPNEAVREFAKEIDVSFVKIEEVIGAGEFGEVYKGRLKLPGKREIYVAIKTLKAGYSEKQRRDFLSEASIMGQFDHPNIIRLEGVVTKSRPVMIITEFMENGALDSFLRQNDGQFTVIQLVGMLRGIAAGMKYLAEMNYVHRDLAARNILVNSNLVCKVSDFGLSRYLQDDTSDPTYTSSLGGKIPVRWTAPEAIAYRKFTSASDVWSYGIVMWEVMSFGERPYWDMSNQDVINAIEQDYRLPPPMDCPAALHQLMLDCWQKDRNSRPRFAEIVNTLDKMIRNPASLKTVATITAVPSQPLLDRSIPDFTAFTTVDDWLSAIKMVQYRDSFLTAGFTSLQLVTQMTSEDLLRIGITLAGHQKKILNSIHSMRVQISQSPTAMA

[3] = tested on: T2, Receptor-type tyrosine-protein kinase FLT3 (Homo sapiens), P36888 [R834Q]; settings: at 10 µM
T2 sequence (whole entry): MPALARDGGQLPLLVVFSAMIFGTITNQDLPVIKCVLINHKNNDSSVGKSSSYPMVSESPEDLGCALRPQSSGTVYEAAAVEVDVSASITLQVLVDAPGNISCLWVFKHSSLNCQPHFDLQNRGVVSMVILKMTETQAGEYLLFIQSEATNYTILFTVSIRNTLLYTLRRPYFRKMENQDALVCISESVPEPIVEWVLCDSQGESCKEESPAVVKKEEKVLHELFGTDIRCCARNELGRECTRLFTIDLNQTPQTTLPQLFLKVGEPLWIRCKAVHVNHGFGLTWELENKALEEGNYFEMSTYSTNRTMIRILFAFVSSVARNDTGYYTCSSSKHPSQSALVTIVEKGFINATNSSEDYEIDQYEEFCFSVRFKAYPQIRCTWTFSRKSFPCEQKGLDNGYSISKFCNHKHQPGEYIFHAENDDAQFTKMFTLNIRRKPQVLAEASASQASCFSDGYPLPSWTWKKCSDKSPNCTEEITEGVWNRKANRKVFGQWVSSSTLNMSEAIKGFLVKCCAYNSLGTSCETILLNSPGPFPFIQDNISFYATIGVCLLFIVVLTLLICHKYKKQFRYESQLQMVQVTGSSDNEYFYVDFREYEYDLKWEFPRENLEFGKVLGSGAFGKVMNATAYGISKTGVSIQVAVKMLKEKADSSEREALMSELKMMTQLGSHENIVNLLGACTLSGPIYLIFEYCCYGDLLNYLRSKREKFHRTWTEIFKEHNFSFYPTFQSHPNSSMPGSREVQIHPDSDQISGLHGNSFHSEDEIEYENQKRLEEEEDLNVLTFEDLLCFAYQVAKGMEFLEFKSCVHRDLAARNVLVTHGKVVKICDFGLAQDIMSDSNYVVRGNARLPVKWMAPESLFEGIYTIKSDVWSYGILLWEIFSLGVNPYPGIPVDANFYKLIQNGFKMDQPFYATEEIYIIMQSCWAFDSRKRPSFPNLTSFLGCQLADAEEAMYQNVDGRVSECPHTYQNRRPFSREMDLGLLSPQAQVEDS

[4] = biological target: T3, cAMP-dependent protein kinase catalytic subunit PRKX (Homo sapiens) (UniProt P51817); test: Selectivity interaction (Kinase panel (Z-LYTE Assay)) EUB0001632a PRKX; settings: at 10 µM
T3 sequence (whole entry): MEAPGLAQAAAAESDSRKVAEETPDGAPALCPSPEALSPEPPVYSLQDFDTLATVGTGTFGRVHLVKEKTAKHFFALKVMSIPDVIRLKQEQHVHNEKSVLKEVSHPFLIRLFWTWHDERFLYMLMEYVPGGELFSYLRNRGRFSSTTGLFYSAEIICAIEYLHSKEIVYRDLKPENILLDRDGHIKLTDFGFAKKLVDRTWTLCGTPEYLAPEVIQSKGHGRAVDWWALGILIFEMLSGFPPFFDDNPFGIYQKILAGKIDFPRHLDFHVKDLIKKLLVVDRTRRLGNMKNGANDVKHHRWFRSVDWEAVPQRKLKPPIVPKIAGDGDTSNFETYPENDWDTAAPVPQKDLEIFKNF

Chain of Calcium/calmodulin-dependent protein kinase type 1D (Homo sapiens) (Q8IU85 whole entry, looked up): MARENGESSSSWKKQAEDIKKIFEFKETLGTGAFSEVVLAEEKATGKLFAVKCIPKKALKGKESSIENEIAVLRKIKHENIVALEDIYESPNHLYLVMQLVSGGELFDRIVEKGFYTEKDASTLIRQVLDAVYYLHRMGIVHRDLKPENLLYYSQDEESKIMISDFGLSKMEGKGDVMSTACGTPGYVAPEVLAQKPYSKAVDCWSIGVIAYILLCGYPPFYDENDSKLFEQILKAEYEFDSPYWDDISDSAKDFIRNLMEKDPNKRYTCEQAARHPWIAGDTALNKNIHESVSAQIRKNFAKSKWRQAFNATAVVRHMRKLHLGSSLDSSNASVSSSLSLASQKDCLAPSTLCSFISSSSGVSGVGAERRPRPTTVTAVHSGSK

COc1cc(Nc2nc(C)cc(-c3cnn4nc(OC)ccc34)n2)cc(C(F)(F)F)c1
% of control [1]: 84%

CC[C@@H]1[C@H](F)C(=O)N[C@@H]1COc1nccc2cc(C(N)=O)c(OC)cc12 [ZIMLOVISERTIB]
% of inhibition ([2]; at 0.01 µM): -7% | % of inhibition ([2]; at 0.04 µM): -38.7% | % of inhibition ([2]; at 0.2 µM): -5.5% | % of inhibition ([2]; at 1 µM): -14.3% | % of inhibition ([2]; at 5 µM): -6.5%

Cc1cc([C@@H](C)Nc2ccccc2C(=O)O)c2nc(N3CCOCC3)cc(=O)n2c1 [AZD-6482]
% of control [3]: 94%

Cn1cc(-n2cnc3c(NCc4nc5cc(Cl)c(Cl)cc5[nH]4)nc(N4CCOCC4)nc32)cn1
% of control [4]: 2.85%
